Measurements published in US7153844B2, “Estrogen-linked platinum (II) complexes as anticancer agents” (priority 2002, dated 2006).

Assays:
Assay in all cases: Cell proliferation with the MTT assay
Type in all cases: cell-based, human
KLE = settings: read-out: IC50 (Inhibitory concentration 50%), uterus, ER−, NR = IC50 not reach at the concentrations tested
Text: (§1) Cell Proliferation with the MTT Assay (Uterine, Ovarian and Breast Cancer Cell Lines)
(§2) Several human uterine, ovarian and breast cancer cell lines were used to evaluate the antitumor activities of the new estrogen-linked platinum (II) complexes. The cytotoxicity of the platinum (II) complexes was done along with cisplatin as the control on both ER+ and ER— human uterine, ovarian and breast carcinomas. Cell proliferation was done with the MTT assay as described by J. Carmichael et al. (Cancer Res. 47, 943–946 (1987) see also C. H. J. Ford et al., Cancer Chemother. Pharmacol. 24, 295–301 (1986)). The MTT assay is based on the ability of viable cells to reduce a soluble colorless tetrazolium salt, 3-(4,5-dimethylthiazol-2-yl)-2,5-diphenyltetrazolium bromide (MTT), into an insoluble blue formazan derivative.

SKOV-3 = settings: read-out: IC50 (Inhibitory concentration 50%), SKOV-3, ovary, ER+, NR = IC50 not reach at the concentrations tested
Text: as §1, §2

A2780cp = settings: read-out: IC50 (Inhibitory concentration 50%), ovary, ER−, NR = IC50 not reach at the concentrations tested
Text: as §1, §2

MDA-MB-231 = settings: read-out: IC50 (Inhibitory concentration 50%), MDA-MB-231, breast, ER−, NR = IC50 not reach at the concentrations tested
Text: as §1, §2

HeLa = settings: read-out: IC50 (Inhibitory concentration 50%), uterus, ER−, NR = IC50 not reach at the concentrations tested
Text: as §1, §2

Ishikawa = settings: read-out: IC50 (Inhibitory concentration 50%), uterus, ER+, NR = IC50 not reach at the concentrations tested
Text: as §1, §2

ZR-75-1 = settings: read-out: IC50 (Inhibitory concentration 50%), ZR-75-1, breast, ER+, NR = IC50 not reach at the concentrations tested
Text: as §1, §2

A2780wt = settings: read-out: IC50 (Inhibitory concentration 50%), ovary, ER−, NR = IC50 not reach at the concentrations tested
Text: as §1, §2

MCF-7 = settings: read-out: IC50 (Inhibitory concentration 50%), MCF-7, breast, ER+, NR = IC50 not reach at the concentrations tested
Text: as §1, §2

HS578T = settings: read-out: IC50 (Inhibitory concentration 50%), breast, ER−, NR = IC50 not reach at the concentrations tested
Text: as §1, §2

RL-95-2 = settings: read-out: IC50 (Inhibitory concentration 50%), RL-95-2, uterus, ER+, NR = IC50 not reach at the concentrations tested
Text: as §1, §2

HEC-1A = settings: read-out: IC50 (Inhibitory concentration 50%), uterus, ER−, NR = IC50 not reach at the concentrations tested
Text: as §1, §2

OVCAR-3 = settings: read-out: IC50 (Inhibitory concentration 50%), OVCAR-3, ovary, ER+, NR = IC50 not reach at the concentrations tested
Text: as §1, §2

Compound	IC50 (KLE)	IC50 (SKOV-3)	IC50 (A2780cp)	IC50 (MDA-MB-231)	IC50 (HeLa)	IC50 (Ishikawa)	IC50 (ZR-75-1)	IC50 (A2780wt)	IC50 (MCF-7)	IC50 (HS578T)	IC50 (RL-95-2)	IC50 (HEC-1A)	IC50 (OVCAR-3)
C[C@]12CCC3c4ccc(O)cc4CCC3C1C[C@@](CO)(CCCCCCCCCCNCCc1ccccn1)[C@@H]2O.[Cl][Pt][Cl] (stereo partly drawn) [derivative 14 (∘ = 2, p = 8), 16β-hydroxymethyl-16α-[10-(2-pyridin-2-yl-ethylamino)-decyl]-1,3,5(10)-estratrien-3,17β-diol dichloroplatinum (II)]	3.7 µM	5.8 µM	2 µM	4 µM	6.8 µM	2.2 µM	2.5 µM	1.65 µM	4 µM	3.3 µM	3.1 µM	2.4 µM	9.5 µM
16β-hydroxymethyl-16α-[8′-(2-pyridin-2-yl-ethylamino)-3′,6′-dioxaoctyl]-1,3,5(10)-estratrien-3,17β-diol dichloroplatinum (II) [derivative 23]	17.5 µM	32.5 µM	16 µM	18.8 µM	13.8 µM	2.5 µM	14.6 µM	7.9 µM	12.7 µM	16.2 µM	6.25 µM	20.4 µM	33.8 µM
C[C@]12CCC3c4ccc(O)cc4CCC3C1C[C@@](CO)(CCCCCCNCc1ccccn1)[C@@H]2O.[Cl][Pt][Cl] (stereo partly drawn) [derivative 14 (∘ = 1, p = 4), 16β-hydroxymethyl-16α-[6-(1-pyridin-2-yl-methylamino)-hexyl]-1,3,5(10)-estratrien-3,17β-diol dichloroplatinum (II)]	36.2 µM	> 40 µM	> 40 µM	> 40 µM	36.2 µM	> 40 µM	> 40 µM	23.5 µM	> 40 µM	36.2 µM	16 µM	19.5 µM	> 40 µM
C[C@]12CCC3c4ccc(O)cc4CCC3C1C[C@@](CO)(CCCCNCCc1ccccn1)[C@@H]2O.[Cl][Pt][Cl] (stereo partly drawn) [derivative 14 (∘ = 2, p = 2), 16β-hydroxymethyl-16α-[4-(2-pyridin-2-yl-ethylamino)-butyl]-1,3,5(10)-estratrien-3,17β-diol dichloroplatinum (II)]	> 40 µM	35.6 µM	30.5 µM	> 40 µM	34.5 µM	16 µM	26.3 µM	19.5 µM	28.5 µM	33 µM	10 µM	26.3 µM	31.2 µM
C[C@]12CCC3c4ccc(O)cc4CCC3C1C[C@@](CO)(CCCCNCc1ccccn1)[C@@H]2O.[Cl][Pt][Cl] (stereo partly drawn) [derivative 14 (∘ = 1, p = 2), 16β-hydroxymethyl-16α-[4-(1-pyridin-2-yl-methylamino)-butyl]-1,3,5(10)-estratrien-3,17β-diol dichloroplatinum (II)]	> 40 µM	> 40 µM	> 40 µM	> 40 µM	> 40 µM	36 µM	> 40 µM	33.7 µM	> 40 µM	> 40 µM	40 µM	> 40 µM	> 40 µM
C[C@]12CCC3c4ccc(O)cc4CCC3C1C[C@@](CO)(CCCCCCNCCc1ccccn1)[C@@H]2O.[Cl][Pt][Cl] (stereo partly drawn) [derivative 14 (∘ = 2, p = 4), 16β-hydroxymethyl-16α-[6-(2-pyridin-2-yl-ethylamino)-hexyl]-1,3,5(10)-estratrien-3,17β-diol dichloroplatinum (II)]	8.9 µM	12.5 µM	7 µM	> 40 µM	8.9 µM	20 µM	11.4 µM	5 µM	7 µM	7.25 µM	6.4 µM	6.4 µM	12.5 µM
